Test results: EP4667458A1 (Kanaph Therapeutics Inc., priority 2023, dated 2024)
pIC50: −log10 of the molar value.

These compounds were tested against T1, SOS1 (Homo sapiens, UniProt Q07889) (assay: SOS-catalyzed nucleotide exchange assay (HTRF, SOS1-mediated GTP loading of KRAS G12D)). Settings: GST-KRAS G12D, HIS-SOS1cat, EDA-GTP-DY-647P1; compound 128 pM to 10 µM; read-out: SOS-catalyzed nucleotide exchange assay (IC50 range, Grade).
T1 construct: adding equal amounts of HIS-SOS1cat (160 nM; Cytoskeleton, US); His; purchased Cytoskeleton, US
T1 sequence (Q07889 564-1049 limits assumed): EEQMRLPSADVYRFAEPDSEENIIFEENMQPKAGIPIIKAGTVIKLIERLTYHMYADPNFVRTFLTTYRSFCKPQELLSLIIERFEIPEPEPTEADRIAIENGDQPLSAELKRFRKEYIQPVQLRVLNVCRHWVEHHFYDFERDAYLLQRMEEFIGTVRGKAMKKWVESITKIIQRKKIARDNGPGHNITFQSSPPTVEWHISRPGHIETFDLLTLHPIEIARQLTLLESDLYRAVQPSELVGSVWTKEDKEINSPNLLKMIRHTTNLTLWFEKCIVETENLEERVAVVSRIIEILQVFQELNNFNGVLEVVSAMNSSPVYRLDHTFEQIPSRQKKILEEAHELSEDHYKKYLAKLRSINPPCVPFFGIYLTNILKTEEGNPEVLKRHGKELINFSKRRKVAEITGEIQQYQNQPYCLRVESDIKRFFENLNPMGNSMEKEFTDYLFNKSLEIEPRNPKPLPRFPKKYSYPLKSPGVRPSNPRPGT
Format: biochemical
Procedure: SOS1 activity was measured by SOS1-mediated GTP loading quantification of KRAS^G12D. GTP-loaded KRAS^G12D was detected by HTRF (Homogeneous Time Resolved Fluorescence) using anti-GST terbium (Cisbio, France) as a donor and a fluorescence GTP analogue (EDA-GTP-DY-647P1, [DY-647P1-labeled 2'/3'-O-(2-aminoethyl-carbamoyl)guanosine-5'-triphosphate (Jena bioscience, Germany)]) as an acceptor.
Assay buffer was composed of 10 mM HEPES pH 7.4, 150 mM NaCl, 5 mM MgCl2, 1 mM DTT, 0.05% BSA Fraction V pH 7.0 (Sigma) and 0.0025% (v/v) Igepal (Sigma). KRAS^G12D working solution was prepared by adding equal amounts of GST-KRAS^G12D (100 nM) and anti-GST-terbium (2 nM; Cisbio, France) to the assay buffer and incubating on ice for 10 minutes. SOS1cat working solution was prepared by adding equal amounts of HIS-SOS1cat (160 nM; Cytoskeleton, US) and EDA-GTP-DY-647P1 (200 nM; Jena bioscience, Germany) to the assay buffer. Control solution was prepared by adding equal volumes of EDA-GTP-DY-647P1 and the assay buffer for normalization control to exclude GEF-independent GTP loading and background signals. In order to induce a reaction, 5 µL of the SOS1cat working solution or the control solution was injected into each well. 5 µL of a compound having various concentrations from 128 pM to 10 µM was added to wells containing the SOS1cat working solution and incubated at room temperature for 10 minutes to bind to SOS1.
10 µL of the KRAS^G12D solution was added to each well and incubated for 30 minutes at room temperature while shaking. HTRF was measured using a Thermo Varioskan (excitation 334 nm, emission 665 nm). The IC50 of each inhibitor was analyzed using Graphad Prism.
The SOS1 inhibitory activity of the Example compounds measured by the above method was evaluated based on the following criteria, and the results are shown in Table 29.

pIC50 | SMILES
5.00 to 6.00 | C[C@@H](NC(=O)c1ccc(=O)n(C2CCOCC2)n1)c1cccc(Cl)c1 [Example 17, N-[(1R)-1-(3-chlorophenyl)ethyl]-6-oxo-1-tetrahydropyran-4-yl-pyridazine-3-carboxamide]
5.00 to 6.00 | CC(=O)N1CCC(n2nc(C(=O)N[C@H](C)c3cccc(Cl)c3)ccc2=O)CC1 [Example 18, 1-(1-acetyl-4-piperidyl)-N-[(1R)-1-(3-chlorophenyl)ethyl]-6-oxo-pyridazine-3-carboxamide]
5.00 to 6.00 | C[C@@H](NC(=O)c1ccc(=O)n(C2CCN(S(C)(=O)=O)CC2)n1)c1cccc(Cl)c1 [Example 19, (R)-N-(1-(3-chlorophenyl)ethyl)-1-(1-(methylsulfonyl)piperidin-4-yl)-6-oxo-1,6-dihydropyridazine-3-carboxamide]
> 6.00 | C[C@@H](NC(=O)c1ccc(=O)n(-c2ccccn2)n1)c1cc(N)cc(C(F)(F)F)c1 [Example 20, N-[(1R)-1-[3-amino-5-(trifluoromethyl)phenyl]ethyl]-6-oxo-1-(2-pyridyl)pyridazine-3-carboxamide]
> 6.00 | C[C@@H](NC(=O)c1ccc(=O)n(-c2ccncc2)n1)c1cc(N)cc(C(F)(F)F)c1 [Example 21, N-[(1R)-1-[3-amino-5-(trifluoromethyl)phenyl]ethyl]-6-oxo-1-(4-pyridyl)pyridazine-3-carboxamide]
> 6.00 | Cc1ccc(-n2nc(C(=O)N[C@H](C)c3cc(N)cc(C(F)(F)F)c3)ccc2=O)s1 [Example 22, N-[(1R)-1-[3-amino-5-(trifluoromethyl)phenyl]ethyl]-1-(5-methyl-2-thienyl)-6-oxo-pyridazine-3-carboxamide]
> 6.00 | COc1ccccc1-n1nc(C(=O)N[C@H](C)c2cc(N)cc(C(F)(F)F)c2)ccc1=O [Example 23, N-[(1R)-1-[3-amino-5-(trifluoromethyl)phenyl]ethyl]-1-(2-methoxyphenyl)-6-oxo-pyridazine-3-carboxamide]
> 6.00 | C[C@@H](NC(=O)c1ccc(=O)n(-c2cccc3ccccc23)n1)c1cc(N)cc(C(F)(F)F)c1 [Example 25, (R)-N-(1-(3-amino-5-(trifluoromethyl)phenyl)ethyl)-1-(naphthalen-1-yl)-6-oxo-1,6-dihydropyridazine-3-carboxamide]
> 6.00 | C[C@@H](NC(=O)c1ccc(=O)n(-c2cccnc2)n1)c1cc(N)cc(C(F)(F)F)c1 [Example 26, (R)-N-(1-(3-amino-5-(trifluoromethyl)phenyl)ethyl)-6-oxo-1-(pyridin-3-yl)-1,6-dihydropyridazine-3-carboxamide]
> 6.00 | Cc1cc(-n2nc(C(=O)N[C@H](C)c3cc(N)cc(C(F)(F)F)c3)ccc2=O)cs1 [Example 27, (R)-N-(1-(3-amino-5-(trifluoromethyl)phenyl)ethyl)-1-(5-methylthiophen-3-yl)-6-oxo-1,6-dihydropyridazine-3-carboxamide]
< 5.00 | C[C@@H](NC(=O)c1ccc(=O)n(-c2ccccc2S(C)(=O)=O)n1)c1cc(N)cc(C(F)(F)F)c1 [Example 28, (R)-N-(1-(3-amino-5-(trifluoromethyl)phenyl)ethyl)-1-(2-(methylsulfonyl)phenyl)-6-oxo-1,6-dihydropyridazine-3-carboxamide]
> 6.00 | C[C@@H](NC(=O)c1ccc(=O)n(-c2ccccc2C#N)n1)c1cc(N)cc(C(F)(F)F)c1 [Example 29, N-[(1R)-1-[3-amino-5-(trifluoromethyl)phenyl]ethyl]-1-(2-cyanophenyl)-6-oxo-pyridazine-3-carboxamide]
> 6.00 | COc1ccc(-n2nc(C(=O)N[C@H](C)c3cc(N)cc(C(F)(F)F)c3)ccc2=O)cc1 [Example 30, N-[(1R)-1-[3-amino-5-(trifluoromethyl)phenyl]ethyl]-1-(4-methoxyphenyl)-6-oxo-pyridazine-3-carboxamide]
> 6.00 | C[C@@H](NC(=O)c1ccc(=O)n(-c2cccc(C(=O)N(C)C)c2)n1)c1cc(N)cc(C(F)(F)F)c1 [Example 31, (R)-N-(1-(3-amino-5-(trifluoromethyl)phenyl)ethyl)-1-(3-(dimethylcarbamoyl)phenyl)-6-oxo-1,6-dihydropyridazine-3-carboxamide]
> 6.00 | C[C@@H](NC(=O)c1ccc(=O)n(-c2ccccc2Cl)n1)c1cc(N)cc(C(F)(F)F)c1 [Example 32, (R)-N-(1-(3-amino-5-(trifluoromethyl)phenyl)ethyl)-1-(2-chlorophenyl)-6-oxo-1,6-dihydropyridazine-3-carboxamide]
> 6.00 | C[C@@H](NC(=O)c1ccc(=O)n(-c2ccccc2NS(C)(=O)=O)n1)c1cc(N)cc(C(F)(F)F)c1 [Example 33, N-[(1R)-1-[3-amino-5-(trifluoromethyl)phenyl]ethyl]-1-[2-(methanesulfonamido)phenyl]-6-oxo-pyridazine-3-carboxamide]
5.00 to 6.00 | C[C@@H](NC(=O)c1ccc(=O)n(-c2cccc(NS(C)(=O)=O)c2)n1)c1cc(N)cc(C(F)(F)F)c1 [Example 34, (R)-N-(1-(3-amino-5-(trifluoromethyl)phenyl)ethyl)-1-(3-(methylsulfonamido)phenyl)-6-oxo-1,6-dihydropyridazine-3-carboxamide]
> 6.00 | CC(=O)Nc1cccc(-n2nc(C(=O)N[C@H](C)c3cc(N)cc(C(F)(F)F)c3)ccc2=O)c1 [Example 35, (R)-1-(3-acetamidophenyl)-N-(1-(3-amino-5-(trifluoromethyl)phenyl)ethyl)-6-oxo-1,6-dihydropyridazine-3-carboxamide]
> 6.00 | COc1ccc(-n2nc(C(=O)N[C@H](C)c3cc(N)cc(C(F)(F)F)c3)ccc2=O)cc1OC [Example 36, N-[(1R)-1-[3-amino-5-(trifluoromethyl)phenyl]ethyl]-1-(3,4-dimethoxyphenyl)-6-oxo-pyridazine-3-carboxamide]
> 6.00 | C[C@@H](NC(=O)c1ccc(=O)n(-c2cccc(S(C)(=O)=O)c2)n1)c1cc(N)cc(C(F)(F)F)c1 [Example 37, N-[(1R)-1-[3-amino-5-(trifluoromethyl)phenyl]ethyl]-1-(3-methylsulfonylphenyl)-6-oxo-pyridazine-3-carboxamide]
> 6.00 | COc1ccccc1-n1nc(C(=O)N[C@H](C)c2cccc(C(F)(F)CO)c2)ccc1=O [Example 38, N-[(1R)-1-[3-(1,1-difluoro-2-hydroxyethyl)phenyl]ethyl]-1-(2-methoxyphenyl)-6-oxo-pyridazine-3-carboxamide]
> 6.00 | C[C@@H](NC(=O)c1ccc(=O)n(-c2cccc(NS(C)(=O)=O)c2)n1)c1cccc(C(F)(F)CO)c1 [Example 39, (R)-N-(1-(3-(1,1-difluoro-2-hydroxyethyl)phenyl)ethyl)-1-(3-(methylsulfonamido)phenyl)-6-oxo-1,6-dihydropyridazine-3-carboxamide]
> 6.00 | COc1cccc(-n2nc(C(=O)N[C@H](C)c3cc(N)cc(C(F)(F)F)c3)ccc2=O)c1 [Example 40, N-[(1R)-1-[3-amino-5-(trifluoromethyl)phenyl]ethyl]-1-(3-methoxyphenyl)-6-oxo-pyridazine-3-carboxamide]
> 6.00 | Cc1ccccc1-n1nc(C(=O)N[C@H](C)c2cc(N)cc(C(F)(F)F)c2)ccc1=O [Example 41, N-[(1R)-1-[3-amino-5-(trifluoromethyl)phenyl]ethyl]-1-(o-tolyl)-6-oxo-pyridazine-3-carboxamide]
> 6.00 | COc1ccc(-n2nc(C(=O)N[C@H](C)c3cccc(C(F)(F)CO)c3F)ccc2=O)cc1 [Example 42, (R)-N-(1-(3-(1,1-difluoro-2-hydroxyethyl)-2-fluorophenyl)ethyl)-1-(4-methoxyphenyl)-6-oxo-1,6-dihydropyridazine-3-carboxamide]
> 6.00 | C[C@@H](NC(=O)c1ccc(=O)n(-c2cccc(C(=O)N(C)C)c2)n1)c1cccc(C(F)(F)CO)c1F [Example 43, N-[(1R)-1-[3-(1,1-difluoro-2-hydroxy-ethyl)-2-fluorophenyl]ethyl]-1-[3-(dimethylcarbamoyl)phenyl]-6-oxo-pyridazine-3-carboxamide]
